One data set concerns Enterococcus gallinarum. Kind of data set: MIC microbroth dilution (CLSI). It counts as cell-based. Conditions: vancomycin-resistant (VanC) clinical isolate. From the text: (§1) Cation-adjusted Mueller-Hinton broth (Oxoid Ltd., Basingstoke, UK and Trek Diagnostic Systems Ltd., East Grinstead, UK) (supplemented with 5% laked horse blood for Streptococcus spp., Corynebacterium jeikeium and Listeria monocytogenes) was used for aerobic bacteria, with an initial inoculum of approximately 10^5 colony-forming units (CFU)/m L.

The test system of a further data set is Listeria monocytogenes. Kind of data set: MIC microbroth dilution (CLSI). It counts as cell-based. The note with it: antibiotic-susceptible clinical isolate.
Source text: as §1
For orientation: Dilution methods test growth across graded concentrations, often in twofold steps.

For a further data set, the system named is Salmonella sp. Kind of data set: MIC microbroth dilution (CLSI). It counts as cell-based.
Source text: as §1

In another data set the test system is Shigella sp. Kind of data set: MIC microbroth dilution (CLSI). It counts as cell-based. Conditions: antibiotic-susceptible clinical isolate.
Source text: as §1

In data set [1] the test system is Staphylococcus saprophyticus. The data set can be described thus: MIC microbroth dilution (CLSI). It counts as cell-based. The note with it: antibiotic susceptible clinical isolate.
Source text: as §1

The subject of data set [2] is Stenotrophomonas maltophilia. Kind of data set: MIC microbroth dilution (CLSI). It counts as cell-based. The note with it: antibiotic-susceptible clinical isolate.
Source text: as §1

Another data set has as its system trypsin. Kind of data set: in vitro. It counts as in vitro ADME. The note with it: pH 8.6. The method, then:
Each peptide was dissolved in a 0.1 M NH4HCO3 buffer (pH 6.5) to yield a final peptide concentration of 1 mg/ml. A trypsin solution was prepared by dissolving 1 mg of trypsin in 50 ml 0.1 M NH4HCO3 buffer (pH 8.2). For the stability determination, 250 μl freshly made trypsin solution and 250 μl peptide solution were incubated in 2 ml of 0.1 M NH4HCO3 buffer (pH 8.6) at 37° C. on a rocking table. Aliquots of 0.5 ml were sampled at different time intervals, diluted with 0.5 ml water:acetonitrile (60:40 v/v) containing 1% TFA and analysed by RP-HPLC as described above. Samples without trypsin addition taken at 0 h and after 20 h at 37° C. were used as negative controls. Integration of the peak area at 254 nm for samples taken during the first 5 hours of the assay was used to generate the […].

The subject of data set [3] is Staphylococcus epidermidis RP62A. Kind of data set: CFU on silicone prosthetic liner patches. The note with it: washed with water. It counts as cell-based. The method, then: (§2) Bacterial Strains: • Staphylococcus epidermidis RP62A • Staphylococcus hominis 58-69
(§3) Overnight colonies of S. epidermidis or S. hominis were diluted to 0.5 McFarland (1×10^8 CFU/ml) in 0.85% NaCl. The bacterial solution was further diluted in Tryptic Soy Broth media (to 1×10^5 CFU/ml) and drops of 100 μl was applied to the surfaces of the silicone patches. Silicone patches were placed on glass microscope slides, and the glass slides were placed in a moist incubation chamber and incubated for 24 hours at 37° C.
(§4) For determining CFU, the samples were vortexed in 1 ml 0.85% NaCl and serial dilutions (10^−1 to 10^−6) were made. 100 μl aliquots of the serial dilutions were streaked on blood agar plates, and further incubated overnight prior to CFU counting.
(§5) The level of bacterial inhibition was examined by number of CFU and growth zone inhibition. All materials tested were washed with water after completion of the swell and dry procedure to ensure that the activity of the materials was due to internally absorbed AMC-109 only.

Data set [4] relates to Staphylococcus hominis 58-69. The data set can be described thus: CFU on silicone prosthetic liner patches. It counts as cell-based. Conditions: washed with water. The method, then: as §2, §3, §4, §5

The structures appear in SMILES notation. Some results are limits rather than exact numbers.

What is called half-life is the time in which the quantity being followed falls by half. Turning to `CC(C)(C)c1cc(C(C)(C)C)c2[nH]c(C(C)(C)C)c(CC(NC(=O)C(N)CCCNC(=N)N)C(=O)NC(CCCNC(=N)N)C(=O)NCCc3ccccc3)c2c1` (stereo not shown) [Compound 2], the MIC was 4 in the data set on Enterococcus gallinarum; 16 in the data set with Listeria monocytogenes; 8 against Salmonella sp (antibiotic-susceptible clinical isolate); 8 with Salmonella sp (multi-drug resistant clinical isolate); 8 in the data set with Shigella sp; 1 in data set [1]. Also, the MIC in data set [2] is 8. Moreover, in the data set with trypsin, the half-life at 0.1 mg/ml is more than 24 h. Also, the CFU in data set [3] (5 minutes swell time), in data set [3] (15 minutes swell time), in data set [4] (5 minutes swell time) and in data set [4] (15 minutes swell time) was 0 CFU/ml throughout. Besides, in the data set with S. aureus, the “minimum inhibitory concentration (MIC)” value lay within 2 to 4 µg/mL.

For the origin of these results see patent publication US20230233736A1, “ANTIMICROBIAL FORMULATIONS COMPRISING SILICONE” (AMICOAT AS, priority 2020, published 2023).
